{
  "source": "PubChem BioAssay (NCI)",
  "test_in_all_cases": "NCI tumour cell line growth inhibition, 48 h",
  "key": {"LOX IMVI melanoma": {"test_system": "LOX IMVI melanoma"}, "DMS 273 small cell lung": {"test_system": "DMS 273 small cell lung"}, "SW-620 colon": {"test_system": "SW-620 colon"}, "SF-268 CNS": {"test_system": "SF-268 CNS"}, "HOP-92 NSCLC": {"test_system": "HOP-92 NSCLC"}, "NCI-H226 lung": {"test_system": "NCI-H226 lung"}, "A549 NSCLC": {"test_system": "A549 NSCLC"}, "K-562 leukemia": {"test_system": "K-562 leukemia"}, "OVCAR-5 ovarian": {"test_system": "OVCAR-5 ovarian"}, "OVCAR-8 ovarian": {"test_system": "OVCAR-8 ovarian"}, "UACC-62 melanoma": {"test_system": "UACC-62 melanoma"}, "SN12C renal": {"test_system": "SN12C renal"}, "SNB-75 CNS": {"test_system": "SNB-75 CNS"}, "DMS 114 small cell lung": {"test_system": "DMS 114 small cell lung"}, "OVCAR-3 ovarian": {"test_system": "OVCAR-3 ovarian"}, "SK-MEL-5 melanoma": {"test_system": "SK-MEL-5 melanoma"}, "KM20L2 colon": {"test_system": "KM20L2 colon"}, "RXF-631 renal": {"test_system": "RXF-631 renal"}, "ACHN renal": {"test_system": "ACHN renal"}, "MOLT-4 leukemia": {"test_system": "MOLT-4 leukemia"}, "HCT-116 colon": {"test_system": "HCT-116 colon"}, "HL-60(TB) leukemia": {"test_system": "HL-60(TB) leukemia"}, "MDA-MB-435": {"test_system": "MDA-MB-435"}, "CAKI-1 renal": {"test_system": "CAKI-1 renal"}, "NCI-H522 lung": {"test_system": "NCI-H522 lung"}, "MDA-MB-231 breast": {"test_system": "MDA-MB-231 breast"}, "A498 renal": {"test_system": "A498 renal"}, "BT-549 breast": {"test_system": "BT-549 breast"}, "IGROV1 ovarian": {"test_system": "IGROV1 ovarian"}, "M14 melanoma": {"test_system": "M14 melanoma"}, "XF 498 CNS": {"test_system": "XF 498 CNS"}, "MDA-N": {"test_system": "MDA-N"}, "NCI/ADR-RES ovarian": {"test_system": "NCI/ADR-RES ovarian"}, "LXFL 529 NSCLC": {"test_system": "LXFL 529 NSCLC"}, "U251 CNS": {"test_system": "U251 CNS"}, "PC-3 prostate": {"test_system": "PC-3 prostate"}, "SF-295 CNS": {"test_system": "SF-295 CNS"}, "HS 578T breast": {"test_system": "HS 578T breast"}, "TK-10 renal": {"test_system": "TK-10 renal"}, "SF-539 CNS": {"test_system": "SF-539 CNS"}, "786-0 renal": {"test_system": "786-0 renal"}, "SK-MEL-28 melanoma": {"test_system": "SK-MEL-28 melanoma"}, "DU-145 prostate": {"test_system": "DU-145 prostate"}, "KM12 colon": {"test_system": "KM12 colon"}, "EKVX NSCLC": {"test_system": "EKVX NSCLC"}, "SK-MEL-2 melanoma": {"test_system": "SK-MEL-2 melanoma"}, "T-47D breast": {"test_system": "T-47D breast"}, "HT29 colon": {"test_system": "HT29 colon"}, "HOP-62 NSCLC": {"test_system": "HOP-62 NSCLC"}, "DLD-1 colon": {"test_system": "DLD-1 colon"}, "MALME-3M melanoma": {"test_system": "MALME-3M melanoma"}, "SR leukemia": {"test_system": "SR leukemia"}, "SNB-78 CNS": {"test_system": "SNB-78 CNS"}, "UACC-257 melanoma": {"test_system": "UACC-257 melanoma"}, "HCT-15 colon": {"test_system": "HCT-15 colon"}, "NCI-H460 lung": {"test_system": "NCI-H460 lung"}, "RXF 393 renal": {"test_system": "RXF 393 renal"}, "SK-OV-3 ovarian": {"test_system": "SK-OV-3 ovarian"}, "UO-31 renal": {"test_system": "UO-31 renal"}, "M19-MEL melanoma": {"test_system": "M19-MEL melanoma"}, "COLO 205 colon": {"test_system": "COLO 205 colon"}, "RPMI-8226 leukemia": {"test_system": "RPMI-8226 leukemia"}, "SNB-19 CNS": {"test_system": "SNB-19 CNS"}, "NCI-H23 lung": {"test_system": "NCI-H23 lung"}, "HOP-18 NSCLC": {"test_system": "HOP-18 NSCLC"}, "CCRF-CEM leukemia": {"test_system": "CCRF-CEM leukemia"}, "OVCAR-4 ovarian": {"test_system": "OVCAR-4 ovarian"}, "HCC-2998 colon": {"test_system": "HCC-2998 colon"}},
  "note": "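Results reflect a 48-hour exposure of cells in 96-well plates to compound at five concentrations. TGI marks complete inhibition of growth.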",
  "data": [
    {"smiles": "COC(=O)/C(=N\\Nc1nnc(C)n1N)C(C#N)c1ccccc1", "note": "(stereo not drawn)", "values": [
      {"measurement": "TGI", "setting": "LOX IMVI melanoma", "result": "> 100", "unit": "µM"},
      {"measurement": "TGI", "setting": "DMS 273 small cell lung", "result": "> 100", "unit": "µM"},
      {"measurement": "TGI", "setting": "SW-620 colon", "result": "> 100", "unit": "µM"},
      {"measurement": "TGI", "setting": "SF-268 CNS", "result": "> 100", "unit": "µM"},
      {"measurement": "TGI", "setting": "HOP-92 NSCLC", "result": "> 100", "unit": "µM"},
      {"measurement": "TGI", "setting": "NCI-H226 lung", "result": "> 100", "unit": "µM"},
      {"measurement": "TGI", "setting": "A549 NSCLC", "result": "> 100", "unit": "µM"},
      {"measurement": "TGI", "setting": "K-562 leukemia", "result": "> 100", "unit": "µM"},
      {"measurement": "TGI", "setting": "OVCAR-5 ovarian", "result": "> 100", "unit": "µM"},
      {"measurement": "TGI", "setting": "OVCAR-8 ovarian", "result": "> 100", "unit": "µM"},
      {"measurement": "TGI", "setting": "UACC-62 melanoma", "result": "> 100", "unit": "µM"},
      {"measurement": "TGI", "setting": "SN12C renal", "result": "> 66.7", "unit": "µM"},
      {"measurement": "TGI", "setting": "SNB-75 CNS", "result": "> 100", "unit": "µM"},
      {"measurement": "TGI", "setting": "DMS 114 small cell lung", "result": 42.8, "unit": "µM"},
      {"measurement": "TGI", "setting": "OVCAR-3 ovarian", "result": "> 100", "unit": "µM"},
      {"measurement": "TGI", "setting": "SK-MEL-5 melanoma", "result": "> 100", "unit": "µM"},
      {"measurement": "TGI", "setting": "KM20L2 colon", "result": "> 100", "unit": "µM"},
      {"measurement": "TGI", "setting": "RXF-631 renal", "result": "> 100", "unit": "µM"},
      {"measurement": "TGI", "setting": "ACHN renal", "result": "> 71.1", "unit": "µM"},
      {"measurement": "TGI", "setting": "MOLT-4 leukemia", "result": "> 100", "unit": "µM"},
      {"measurement": "TGI", "setting": "HCT-116 colon", "result": "> 100", "unit": "µM"},
      {"measurement": "TGI", "setting": "HL-60(TB) leukemia", "result": "> 100", "unit": "µM"},
      {"measurement": "TGI", "setting": "MDA-MB-435", "result": 32.5, "unit": "µM"},
      {"measurement": "TGI", "setting": "CAKI-1 renal", "result": "> 100", "unit": "µM"},
      {"measurement": "TGI", "setting": "NCI-H522 lung", "result": "> 100", "unit": "µM"},
      {"measurement": "TGI", "setting": "MDA-MB-231 breast", "result": "> 100", "unit": "µM"},
      {"measurement": "TGI", "setting": "A498 renal", "result": "> 100", "unit": "µM"},
      {"measurement": "TGI", "setting": "BT-549 breast", "result": "> 100", "unit": "µM"},
      {"measurement": "TGI", "setting": "IGROV1 ovarian", "result": "> 100", "unit": "µM"},
      {"measurement": "TGI", "setting": "M14 melanoma", "result": "> 100", "unit": "µM"},
      {"measurement": "TGI", "setting": "XF 498 CNS", "result": "> 100", "unit": "µM"},
      {"measurement": "TGI", "setting": "MDA-N", "result": 44.4, "unit": "µM"},
      {"measurement": "TGI", "setting": "NCI/ADR-RES ovarian", "result": "> 100", "unit": "µM"},
      {"measurement": "TGI", "setting": "LXFL 529 NSCLC", "result": "> 100", "unit": "µM"},
      {"measurement": "TGI", "setting": "U251 CNS", "result": "> 100", "unit": "µM"},
      {"measurement": "TGI", "setting": "PC-3 prostate", "result": "> 100", "unit": "µM"},
      {"measurement": "TGI", "setting": "SF-295 CNS", "result": "> 100", "unit": "µM"},
      {"measurement": "TGI", "setting": "HS 578T breast", "result": "> 100", "unit": "µM"},
      {"measurement": "TGI", "setting": "TK-10 renal", "result": "> 100", "unit": "µM"},
      {"measurement": "TGI", "setting": "SF-539 CNS", "result": "> 100", "unit": "µM"},
      {"measurement": "TGI", "setting": "786-0 renal", "result": "> 55.1", "unit": "µM"},
      {"measurement": "TGI", "setting": "SK-MEL-28 melanoma", "result": "> 100", "unit": "µM"},
      {"measurement": "TGI", "setting": "DU-145 prostate", "result": "> 100", "unit": "µM"},
      {"measurement": "TGI", "setting": "KM12 colon", "result": "> 100", "unit": "µM"},
      {"measurement": "TGI", "setting": "EKVX NSCLC", "result": "> 100", "unit": "µM"},
      {"measurement": "TGI", "setting": "SK-MEL-2 melanoma", "result": "> 100", "unit": "µM"},
      {"measurement": "TGI", "setting": "T-47D breast", "result": "> 100", "unit": "µM"},
      {"measurement": "TGI", "setting": "HT29 colon", "result": "> 100", "unit": "µM"},
      {"measurement": "TGI", "setting": "HOP-62 NSCLC", "result": "> 100", "unit": "µM"},
      {"measurement": "TGI", "setting": "DLD-1 colon", "result": "> 100", "unit": "µM"},
      {"measurement": "TGI", "setting": "MALME-3M melanoma", "result": 46.5, "unit": "µM"},
      {"measurement": "TGI", "setting": "SR leukemia", "result": "> 100", "unit": "µM"},
      {"measurement": "TGI", "setting": "SNB-78 CNS", "result": "> 100", "unit": "µM"},
      {"measurement": "TGI", "setting": "UACC-257 melanoma", "result": "> 100", "unit": "µM"},
      {"measurement": "TGI", "setting": "HCT-15 colon", "result": "> 100", "unit": "µM"},
      {"measurement": "TGI", "setting": "NCI-H460 lung", "result": "> 100", "unit": "µM"},
      {"measurement": "TGI", "setting": "RXF 393 renal", "result": "> 100", "unit": "µM"},
      {"measurement": "TGI", "setting": "SK-OV-3 ovarian", "result": "> 100", "unit": "µM"},
      {"measurement": "TGI", "setting": "UO-31 renal", "result": "> 100", "unit": "µM"},
      {"measurement": "TGI", "setting": "M19-MEL melanoma", "result": 32.8, "unit": "µM"},
      {"measurement": "TGI", "setting": "COLO 205 colon", "result": "> 100", "unit": "µM"},
      {"measurement": "TGI", "setting": "RPMI-8226 leukemia", "result": "> 100", "unit": "µM"},
      {"measurement": "TGI", "setting": "SNB-19 CNS", "result": "> 100", "unit": "µM"},
      {"measurement": "TGI", "setting": "NCI-H23 lung", "result": "> 56.1", "unit": "µM"},
      {"measurement": "TGI", "setting": "HOP-18 NSCLC", "result": "> 100", "unit": "µM"},
      {"measurement": "TGI", "setting": "CCRF-CEM leukemia", "result": "> 100", "unit": "µM"},
      {"measurement": "TGI", "setting": "OVCAR-4 ovarian", "result": "> 67.4", "unit": "µM"},
      {"measurement": "TGI", "setting": "HCC-2998 colon", "result": "> 100", "unit": "µM"}
    ]}
  ]
}
